Laboratory results: patent publication US12350250B2, “Aggrelytes for treating ocular conditions” (The Regents of the University of Colorado, a Body Corporate, priority 2022, dated 2025)

Experiments:
human lenses = assay: AcK in WS cortical and nuclear fractions of treated human lenses (LC-MS/MS); settings: 1 mM, 72 h, vs untreated controls
Method: Mouse and human lenses were treated with aggrelytes as described in Example 10. Water-soluble proteins from mouse and human lenses were obtained as described in Example 13. Effects of aggrelyte treatment on AcK-bearing proteins in the WS fractions were evaluated by LC-MS/MS analysis as described in Example 6.

αA-crystallin (αAC) [1] = biological target: T1, αA-crystallin (αAC) (Homo sapiens, UniProt P02489); assay: Relative protein acetylation capability on recombinant αAC; format: biochemical; settings: 500 μM acetylating agent, αAC 3 mg/mL, 24 hours, 37° C.
T1 sequence (P02489 1-173): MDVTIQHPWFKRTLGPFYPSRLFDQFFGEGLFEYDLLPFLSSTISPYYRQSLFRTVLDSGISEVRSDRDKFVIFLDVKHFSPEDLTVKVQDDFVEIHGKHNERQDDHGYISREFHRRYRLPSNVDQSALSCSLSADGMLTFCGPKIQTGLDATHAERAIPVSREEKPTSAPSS
Method: The relative ability of Aggrelyte-2 to acetylate lysine residues in proteins was investigated using αA-crystallin (αAC). Human recombinant αAC (3 mg/mL PBS) was incubated in 50 mM sodium phosphate buffer, pH 7.4, for 24 hours at 37° C. while shaking without or with 500 μM acetylating agent (Aggrelyte-2, acetyl-CoA, acetic anhydride, or aspirin), dialyzed against PBS for 24 hours at 4° C.

αA-crystallin (αAC) [2] = assay: Crystallin levels in solubilized human lens proteins (Western blot), αAC; format: biochemical; settings: 500 μM, solubilized proteins of three human lenses
Method: The contents of crystalline proteins [αA-crystallin (αAC), αB-crystallin (αBC), β-crystallin (βC), and γ-crystallin (γC)] in the solubilized proteins of three human lenses treated with either Aggrelyte-2 or Aggrelyte-2C (500 μM) from Example 4 were determined by Western blot analysis as described for Example 5. Membranes were incubated with antibodies against αAC (1:14,000 dilution; Enzo Life Sciences, Catalog #ADI-SPA-221D), αBC (1:700,000 dilution; University of Iowa), βC (1:14,000 dilution; Santa Cruz Biotechnology, Catalog #sc-22745), and γC (1:7,000 dilution; Santa Cruz Biotechnology, Catalog #sc-22746). The secondary antibodies were HRP-conjugated anti-mouse IgG for αBC and HRP-conjugated […] (Cell Signaling Technology, Catalog #7074S) for αAC, βC, and γC. According to the supplier, the […] detects mostly βB1-crystallin and, to a lesser extent, βA1/3, βA2, βA4, βB2, and βB3-crystallin. The γC antibody reacts with γA, γB, γC, γD, γE, and γF-crystallin.

For `COC(=O)[C@H](CSC(C)=O)NC(C)=O` [Aggrelyte-2, N,S-diacetyl-L-cysteine methyl ester], which “AcK content, cortical protein fraction (LC-MS/MS)” value (human lenses) is on record?
The value was “Significantly higher (p<0.05)”.

And the “AcK, nuclear fraction (LC-MS/MS)” value (human lenses)?
The value was “not statistically greater”.

And the “rank order of acetylating agents” value (αA-crystallin (αAC) [1])?
The value was “followed by Aggrelyte-2, aspirin, and acetyl-CoA”.

And the “levels of αAC, fold higher than in the Aggrelyte-2C-treated samples” value (αA-crystallin (αAC) [2])?
The value was 1.3 fold.
